Measurements reported in the supplement of paper PMC11451515.

Experiments:
Details in all cases: 48 h
[1] = test system: SEM cells; test: cell viability relative to DMSO control; higher = less cytotoxic
Method in brief: (§1)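 Leukemia cells (NOMO1 or SEM, 500 cells/well; P12-Ichikawa, 1000 cells/well) were seeded in 5 μl in 1536-well plates after at least four passages of adaptation to each medium. They received library compounds in DMSO by pin dosing, 11 threefold points from 47 μM to 0.79 nM. Luminescence with CellTiter-Glo One was read after 48 h at 37°C. Viability is stated per plate relative to DMSO wells, with cell-free wells as background.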

[2] = test system: NOMO1; test: AUC of viability dose-response curve (% viability x log10 dose units); higher = less sensitive
Method in brief: (§2)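 Leukemia cells adapted to each medium were seeded at 500 or 1000 cells/well in 1536-well plates and dosed with library compounds in DMSO at 11 threefold doses from 47 μM to 0.79 nM for 48 h at 37°C. CellTiter-Glo One luminescence was normalised per plate to DMSO and cell-free wells, then fitted with a four-parameter log-logistic model over log10 doses. Area under the curve was taken from this fit by the trapezoidal rule, with curves above full viability scaled and curves failing quality control removed.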

[3] = test system: P12-Ichikawa; test: as above
Method in brief: as §2

[4] = test system: SEM cells; test: as above
Method in brief: as §2

[5] = test system: NOMO1; test: cell viability relative to DMSO control; higher = less cytotoxic
Method in brief: as §1

[6] = test system: P12-Ichikawa; test: as above
Method in brief: as §1

CC1COC2(CCN(CC2)C/3=N/C(=O)C4=CC(=CC(=C4S3)[N+]([O-])=O)C(F)(F)F)O1 (stereo not given)
[1], HPLM + 10% dialyzed FBS
Details	cell viability [%]
0.000781 µM	97.9
0.00234 µM	105
0.00702 µM	122
0.0211 µM	109
0.0632 µM	93.9
0.19 µM	126
0.569 µM	133
1.71 µM	122
5.12 µM	117
15.4 µM	82.3
46.1 µM	78.3

AUC of viability dose-response curve
Details	[2]	[3]	[4]
HPLM + 10% dialyzed FBS	471	448	456
RPMI 5 mM glucose + 10% FBS	473	442	441
RPMI 5 mM glucose + 10% dialyzed FBS	467	434	446

CO[C@H]1/C=C\C=C(\C)C(=O)NC2=CC(=O)C(NCCN(C)C)=C(C[C@@H](C)C[C@H](OC)[C@H](O)[C@@H](C)/C=C(/C)[C@@H]1OC(N)=O)C2=O
[1], HPLM + 10% dialyzed FBS
Details	cell viability [%]
0.000781 µM	108
0.00234 µM	124
0.00702 µM	118
0.0211 µM	120
0.0632 µM	122
0.19 µM	60.8
0.569 µM	31.6
1.71 µM	25.3
5.12 µM	25.5
15.4 µM	23
46.1 µM	6.44

AUC of viability dose-response curve
Details	[2]	[3]	[4]
HPLM + 10% dialyzed FBS	305	362	279
RPMI 5 mM glucose + 10% FBS	308	328	274
RPMI 5 mM glucose + 10% dialyzed FBS	309	333	268

O=[S+]([O-])(CC1CS1)c1ccc(Oc2ccccc2)cc1 (stereo not given)
AUC of viability dose-response curve
Details	[2]	[3]	[4]
HPLM + 10% dialyzed FBS	448	462	451
RPMI 5 mM glucose + 10% FBS	461	445	437
RPMI 5 mM glucose + 10% dialyzed FBS	435	447	450

CN(C)CCc1ccc(O)cc1
[1], HPLM + 10% dialyzed FBS
Details	cell viability [%]
0.000781 µM	114
0.00234 µM	120
0.00702 µM	134
0.0211 µM	130
0.0632 µM	137
0.19 µM	135
0.569 µM	116
1.71 µM	140
5.12 µM	113
15.4 µM	135
46.1 µM	110

AUC of viability dose-response curve
Details	[2]	[3]	[4]
HPLM + 10% dialyzed FBS	454	448	471
RPMI 5 mM glucose + 10% FBS	460	446	455
RPMI 5 mM glucose + 10% dialyzed FBS	461	450	471

CC[C@@]1(O)C(=O)OC\C2=C1\C=C3/N(CC4=CC5=C(C=CC(=C5CN(C)C)O)N=C34)C2=O
[1], RPMI 5 mM glucose + 10% FBS
Details	cell viability [%]
0.000781 µM	101
0.00234 µM	107
0.00702 µM	87.2
0.0211 µM	107
0.0632 µM	68.6
0.19 µM	22.4
0.569 µM	11.5
1.71 µM	12.2
5.12 µM	6.44
15.4 µM	4.3
46.1 µM	4.41

AUC of viability dose-response curve
Details	[2]	[3]	[4]
HPLM + 10% dialyzed FBS	306	225	245
RPMI 5 mM glucose + 10% FBS	312	217	226
RPMI 5 mM glucose + 10% dialyzed FBS	324	215	230

N/C1=N/C(=O)C/2=C(NC[C@@H](CNC3=CC=C(C=C3)C(=O)N[C@@H](CCC([O-])=O)C([O-])=O)N2C=O)\N1
[1], HPLM + 10% dialyzed FBS
Details	cell viability [%]
0.000781 µM	103
0.00234 µM	114
0.00702 µM	120
0.0211 µM	115
0.0632 µM	131
0.19 µM	114
0.569 µM	117
1.71 µM	116
5.12 µM	119
15.4 µM	123
46.1 µM	136

AUC of viability dose-response curve
Details	HPLM + 10% dialyzed FBS	RPMI 5 mM glucose + 10% FBS	RPMI 5 mM glucose + 10% dialyzed FBS
[2]	319	307	321
[4]	446	465	437

CC(C)(C(=O)NCC(F)(F)C(F)(F)F)C(=O)N[C@@H]1C(=O)Nc2ccccc2-c2ccccc21
cell viability [%], [1]
Details	HPLM + 10% dialyzed FBS	RPMI 5 mM glucose + 10% FBS
0.000781 µM	99.6	96.8
0.00234 µM	113	127
0.00702 µM	120	120
0.0211 µM	128	133
0.0632 µM	127	122
0.19 µM	119	128
0.569 µM	119	130
1.71 µM	123	108
5.12 µM	126	124
15.4 µM	129	72.7
46.1 µM	3.02	3.52

AUC of viability dose-response curve
Details	HPLM + 10% dialyzed FBS	RPMI 5 mM glucose + 10% FBS	RPMI 5 mM glucose + 10% dialyzed FBS
[2]	366	337	363
[4]	452	435	452

C[C@@H]1[C@H](O)[C@@H](C)C=CC=CCCC=CC=CC=CC=C[C@H](O[C@H]2O[C@@H](C)[C@H](O)[C@@H](N)[C@H]2O)CC2O[C@](O)(C[C@@H](O)[C@H](O)CC[C@@H](O)C[C@@H](O)C[C@@H](O)CC(=O)O[C@H]1C)C[C@H](O)[C@H]2C(=O)O
AUC of viability dose-response curve
Details	[2]	[3]	[4]
HPLM + 10% dialyzed FBS	458	459	451
RPMI 5 mM glucose + 10% FBS	432	429	448
RPMI 5 mM glucose + 10% dialyzed FBS	432	456	447

COc1cc(F)c(C(C)C)cc1-c1ccc(C(F)(F)F)cc1CN1C(=O)O[C@H](c2cc(C(F)(F)F)cc(C(F)(F)F)c2)[C@@H]1C
AUC of viability dose-response curve
Details	[2]	[3]	[4]
HPLM + 10% dialyzed FBS	375	438	457
RPMI 5 mM glucose + 10% FBS	438	451	445
RPMI 5 mM glucose + 10% dialyzed FBS	444	459	441

NC(=O)c1ccc2[nH]ccc2c1
AUC of viability dose-response curve
Details	[2]	[3]	[4]
HPLM + 10% dialyzed FBS	440	440	444
RPMI 5 mM glucose + 10% FBS	464	442	312
RPMI 5 mM glucose + 10% dialyzed FBS	460	430	438

CCC(=O)NCC[C@@H]1CCc2ccc3c(c21)CCO3
AUC of viability dose-response curve
Details	[2]	[3]	[4]
HPLM + 10% dialyzed FBS	444	444	430
RPMI 5 mM glucose + 10% FBS	446	455	431
RPMI 5 mM glucose + 10% dialyzed FBS	449	459	435

CO[C@@H]1COCC[C@@H]1N[C@@H]1CC[C@@](C(=O)N2CCc3ncc(C(F)(F)F)cc3C2)(C(C)C)C1
cell viability [%], HPLM + 10% dialyzed FBS
Details	[1]	[5]	[6]
0.000781 µM	97.1	107	98
0.00234 µM	107	133	109
0.00702 µM	110	121	123
0.0211 µM	112	142	119
0.0632 µM	111	157	113
0.19 µM	113	141	119
0.569 µM	114	132	118
1.71 µM	102	127	126
5.12 µM	119	143	127
15.4 µM	103	151	123
46.1 µM	68.1	96.6	47.4

AUC of viability dose-response curve
Details	HPLM + 10% dialyzed FBS	RPMI 5 mM glucose + 10% FBS	RPMI 5 mM glucose + 10% dialyzed FBS
[2]	472	466	472
[4]	466	458	467

CCN1CCC(n2cc(CNc3cc(Cl)c4ncc(C#N)c(Nc5ccc(F)c(Cl)c5)c4c3)nn2)CC1
AUC of viability dose-response curve
Details	[2]	[3]	[4]
HPLM + 10% dialyzed FBS	433	377	433
RPMI 5 mM glucose + 10% FBS	445	432	367
RPMI 5 mM glucose + 10% dialyzed FBS	447	426	400

CN1CCN(c2ccc(C(=O)Nc3n[nH]c4ccc(Cc5cc(F)cc(F)c5)cc34)c(NC3CCOCC3)c2)CC1
AUC of viability dose-response curve
Details	HPLM + 10% dialyzed FBS	RPMI 5 mM glucose + 10% FBS	RPMI 5 mM glucose + 10% dialyzed FBS
[3]	440	440	404
[4]	341	352	354

CC(C)(C)c1[nH]cnc1/C=c1\[nH]c(=O)/c(=C/c2ccccc2)[nH]c1=O
cell viability [%]
Details	[1]	[5]	[6]
HPLM + 10% dialyzed FBS, 0.000781 µM	102	101	115
HPLM + 10% dialyzed FBS, 0.00234 µM	69	76.7	80
HPLM + 10% dialyzed FBS, 0.00702 µM	20	31	22.5
HPLM + 10% dialyzed FBS, 0.0211 µM	23.9	46	18.4
HPLM + 10% dialyzed FBS, 0.0632 µM	24.3	52.7	12
HPLM + 10% dialyzed FBS, 0.19 µM	25.5	37.5	9.79
HPLM + 10% dialyzed FBS, 0.569 µM	24.3	42.1	7.81
HPLM + 10% dialyzed FBS, 1.71 µM	7.62	32.5	3.5
HPLM + 10% dialyzed FBS, 5.12 µM	4.47	20.3	2.31
HPLM + 10% dialyzed FBS, 15.4 µM	4.16	22.1	2.32
HPLM + 10% dialyzed FBS, 46.1 µM	3.59	5.6	2.23
RPMI 5 mM glucose + 10% FBS, 0.000781 µM	117	128	100
RPMI 5 mM glucose + 10% FBS, 0.00234 µM	85.4	109	97
RPMI 5 mM glucose + 10% FBS, 0.00702 µM	16.6	24.3	16.3
RPMI 5 mM glucose + 10% FBS, 0.0211 µM	14	24.5	26.5
RPMI 5 mM glucose + 10% FBS, 0.0632 µM	16.1	28.9	17.8
RPMI 5 mM glucose + 10% FBS, 0.19 µM	17.9	23.9	8.22
RPMI 5 mM glucose + 10% FBS, 0.569 µM	12.1	24.9	5.98
RPMI 5 mM glucose + 10% FBS, 1.71 µM	4.12	17.4	3.28
RPMI 5 mM glucose + 10% FBS, 5.12 µM	3.51	18.4	2.14
RPMI 5 mM glucose + 10% FBS, 15.4 µM	2.93	14.6	1.52
RPMI 5 mM glucose + 10% FBS, 46.1 µM	2.89	6.53	1.95
RPMI 5 mM glucose + 10% dialyzed FBS, 0.000781 µM	106	103	103
RPMI 5 mM glucose + 10% dialyzed FBS, 0.00234 µM	80	105	110
RPMI 5 mM glucose + 10% dialyzed FBS, 0.00702 µM	17.5	24.9	32.7
RPMI 5 mM glucose + 10% dialyzed FBS, 0.0211 µM	21.2	26.2	36.8
RPMI 5 mM glucose + 10% dialyzed FBS, 0.0632 µM	23.4	29.5	25
RPMI 5 mM glucose + 10% dialyzed FBS, 0.19 µM	21.4	27.8	15.7
RPMI 5 mM glucose + 10% dialyzed FBS, 0.569 µM	19.5	30.6	14.2
RPMI 5 mM glucose + 10% dialyzed FBS, 1.71 µM	4.68	20.8	4.42
RPMI 5 mM glucose + 10% dialyzed FBS, 5.12 µM	3.49	23.2	4.87
RPMI 5 mM glucose + 10% dialyzed FBS, 15.4 µM	3.56	16.5	2.24
RPMI 5 mM glucose + 10% dialyzed FBS, 46.1 µM	3.02	3.92	2.04

[2]
Details	AUC of viability dose-response curve
HPLM + 10% dialyzed FBS	200
RPMI 5 mM glucose + 10% FBS	129
RPMI 5 mM glucose + 10% dialyzed FBS	160

OC(Cn1cncn1)(Cn1cncn1)c1ccc(F)cc1F
AUC of viability dose-response curve
Details	[2]	[3]	[4]
HPLM + 10% dialyzed FBS	431	448	463
RPMI 5 mM glucose + 10% FBS	449	448	451
RPMI 5 mM glucose + 10% dialyzed FBS	449	462	467
